In US20070037253A1, “Methods and compositions for treatment of arthritis and cancer” (priority 2003, published 2007):
Where a SMILES comes first, the peptide text is derived from it.

Legend:
Assay type in all cases: biochemical
human recombinant MMP-1 = biological target: T1, human recombinant MMP-1 (Homo sapiens, UniProt P03956); assay: MMP-1 colorimetric assay (BIOMOL AK-404 QuantiZyme)
T1 construct: human recombinant MMP-1 catalytic domain in each well (15.3 U, 20 μL); purchased BIOMOL AK-404
T1 sequence (P03956 100-269 limits assumed): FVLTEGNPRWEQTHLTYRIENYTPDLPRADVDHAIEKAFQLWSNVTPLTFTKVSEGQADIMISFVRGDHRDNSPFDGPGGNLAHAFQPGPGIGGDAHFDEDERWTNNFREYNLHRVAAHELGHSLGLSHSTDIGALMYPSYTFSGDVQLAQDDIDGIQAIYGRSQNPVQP
Experimental: FIG. 3 illustrates the results of an assay on inhibition of human recombinant MMP-1 enzyme activity by various peptide mutants. (A) MMP-1 Activity Curves: The reaction velocity (V) was determined from the slope of the OD versus time (min) plot for each test inhibitor using the linear regression analysis. (∘), Human recombinant MMP-1 purified enzyme; (□), NNGH standard positive control MMP-1 selective inhibitor; (▾), P-NT.II; (▴), D60,65E dimer; (•), PIP [57-67] dimer; (▪), PIP [59-67] dimer. (B) MMP-1 Activity Inhibition Curves: Inhibition curves of various peptide mutants against the human MMP-1 activity. Results are expressed as the mean±SD (n=3).
Inhibition of MMP-1 enzymatic activity: Enzyme inhibition by peptide analogues was assessed by using MMP-1 Colorimetric assay kit for drug discovery (BIOMOL AK-404 QuantiZyme Assay system). Briefly, human recombinant MMP-1 catalytic domain in each well (15.3 U, 20 μL) was allowed to react either with the candidate peptide (test inhibitor) dissolved in DMSO (final 0.5% DMSO in assay buffer), or with the assay buffer alone (control) for 30 min at 37° C. Immediately following incubation, the reaction was initiated by adding the thiopeptide substrate solution in assay buffer (10 μL of 100 μM Ac-PLG-[2-mercapto-4-methyl-pentanoyl]-LG-OC2H5) into each well, and the absorbance at 412 nm continuously monitored for 10 min. 1 mM Ellman's reagent [5,5′-dithiobis (2-nitrobenzoic acid] in assay buffer (50 mM HEPES, 10 mM CaCl2, 0.05% Brij-35) was used as a colour developer in this assay system. The reaction velocity (V) was determined from the slope of the OD versus time (min) plot for each test inhibitor using the linear regression analysis (Graph Pad Prism, Version 2). Inhibition (%) was then calculated using the equation, [100]−[(V inhibitor/control)×100].

[1] = biological target: T2, purified human synovial sPLA2 (human Type IIA sPLA2) (Homo sapiens, UniProt P14555); assay: sPLA2 inhibition, 3H-arachidonate-labelled E. coli membrane assay; conditions: for inhibition at 5 µM: read-out: % Inhibition (mean ± SD)
T2 construct: purchased Cayman Chemicals, USA
T2 sequence (P14555 21-144): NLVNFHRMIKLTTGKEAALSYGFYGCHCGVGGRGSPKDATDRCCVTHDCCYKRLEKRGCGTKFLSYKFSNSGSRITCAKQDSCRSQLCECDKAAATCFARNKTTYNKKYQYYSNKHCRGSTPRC
Experimental: In brief, [^3H] arachidonate-labeled E. coli membranes (0.005 mCi/mL; 5.8 μCi/μmol, NEN) were used as substrate, and 100 mM Tris-HCl—25 mM CaCl2, pH 7.5 solution as an assay buffer. The reaction mixture contained 20 μL of substrate, 0.85 pmole of purified human synovial sPLA2 (human Type IIA sPLA2, Cayman Chemicals, USA), and an increasing concentrations of the family of synthetic peptides derived from the sequence of PIP. The final volume of the reaction mixture was adjusted to 250 μL with an assay buffer. After incubation of the mixture (37° C., 1 h) and termination of the reaction with 750 μL of chilled PBS containing 1% BSA, microfuge tubes containing the samples were centrifuged (10,000 g at 4° C. for 15 min), and 500 μL aliquots of the supernatant taken to measure the amount of [^3H]-labeled arachidonate released from the E. coli membrane using liquid scintillation counting (Multipurpose Scintillation Counter LS 6500; Beckman, USA). As controls, sPLA2 was pre-incubated with the assay buffer alone. All samples, including controls, were performed in triplicate and plotted as the percentage inhibition relative to negative controls.
A sigmoid dose response curve was generated to allow calculation of the IC50 values. All samples were performed in triplicate. Results were analyzed by nonlinear regression with GraphPad Prism (version 2.01) and expressed as the percentage of inhibition relative to control values.

collagenase I (MMP-1) = assay: Collagenase activity assay, collagen thin film (collagen type II substrate); conditions: collagen thin film, collagen type II; peptide concentration not given
Experimental: Collagenase activity was assayed by collagen thin film method using collagen type II as substrate. IC50 values were graphically determined from the inhibition curves, constructed on the basis of the in vitro results of collagenase assays. Results are the mean±SD of 3 separate experiments done in triplicates. (•), P-NT.II; (□), PIP [59-67] dimer; (Δ), PIP [59-67} monomer; (∇), LY 315920.
Collagenase activity assay: Using collagen thin film as the substrate, a quantitative method was established to measure the enzymatic activity of the MMPs (principally collagenase). Collagen type II (Sigma) solution (4 μL, 3 mg/mL in 0.012 N HCl) was added to each well of 96-well plates and precipitated by slowly increasing the pH with 4 μL of H2O and 8 μL of 0.012 N NaOH. The plate was dried at 23° C. for 24 hr, washed with H2O, and dried again at 23° C., resulting in a thin film containing 12 μg of collagen that was tightly bound to the bottom of the wells. Enzymatic reactions of the collagenase I (with and without peptide inhibitors) against the collagen films were carried out in quadruplicate at 24° C. for 16 h. The digested portion of the film was washed away, while the undigested portion was fixed for 3 h with 0.1% Coomassie brilliant blue R in 10% acetic acid and 45% methanol, and the wells washed and dried.

[2] = fixed peptide concentration (5 μM), 3H-labelled E. coli membrane assay

Compound	inhibition at 5 µM [1, 2]	Collagenase (% Inhibition) (collagenase I (MMP-1))	further results
CC[C@H](C)[C@H](NC(=O)[C@H](CC(=O)O)NC(=O)[C@@H](NC(=O)[C@H](CCCNC(=N)N)NC(=O)CN)C(C)C)C(=O)N[C@@H](Cc1c[nH]cn1)C(=O)N[C@H](C(=O)N[C@@H](Cc1c[nH]c2ccccc12)C(=O)N[C@@H](CC(=O)O)C(=O)NCC(=O)N[C@H](C(=O)NCC(=O)N[C@@H](CCCNC(=N)N)C(=O)N[C@H](C(=O)N[C@@H](CC(=O)O)C(=O)N[C@H](C(=O)N[C@@H](Cc1c[nH]cn1)C(=O)N[C@H](C(=O)N[C@@H](Cc1c[nH]c2ccccc12)C(=O)N[C@@H](CC(=O)O)C(=O)NCC(=O)N[C@H](C(=O)O)C(C)C)C(C)C)[C@@H](C)CC)C(C)C)C(C)C)C(C)C [PIP [57-67] dimer] (H-GRVDIHVWDGVGRVDIHVWDGV-OH; N-terminus and C-terminus assumed)	76.4 ± 3.87%		IC50 (human recombinant MMP-1): 970 nM; IC50 [1]: 2430 ± 760 nM
LGRVDIHVWDGVYIR [PIP [56-70], P-NT.II analogue]		60.6 ± 4.5%	
VDIHVW (βD) GV [β-Asp65-PIP [59-67]]			% Inhibition (mean ± SD) [1, 2]: 49.71 ± 3.01%
LGRVDIHVWDGVY [PIP [56-68], P-NT.II analogue]		61.6 ± 7.6%	
CC[C@H](C)[C@H](NC(=O)[C@H](CC(=O)O)NC(=O)[C@@H](N)C(C)C)C(=O)N[C@@H](Cc1c[nH]cn1)C(=O)N[C@H](C(=O)N[C@@H](Cc1c[nH]c2ccccc12)C(=O)N[C@@H](C)C(=O)NCC(=O)N[C@H](C(=O)O)C(C)C)C(C)C [D65A-PIP [59-67], VDIHVW (A) GV] (H-VDIHVWAGV-OH; N-terminus and C-terminus assumed)	48.5 ± 2.34%		
CC[C@H](C)[C@H](NC(=O)[C@H](CC(=O)O)NC(=O)[C@@H](NC(=O)[C@@H](N)CCCNC(=N)N)C(C)C)C(=O)N[C@@H](Cc1c[nH]cn1)C(=O)N[C@H](C(=O)N[C@@H](Cc1c[nH]c2ccccc12)C(=O)N[C@@H](CC(=O)O)C(=O)NCC(=O)N[C@H](C(=O)O)C(C)C)C(C)C [PIP [58-67]] (H-RVDIHVWDGV-OH)		29.4 ± 6.0%	
CC[C@H](C)[C@H](NC(=O)[C@H](CCC(=O)O)NC(=O)[C@@H](N)C(C)C)C(=O)N[C@@H](Cc1c[nH]cn1)C(=O)N[C@H](C(=O)N[C@@H](Cc1c[nH]c2ccccc12)C(=O)N[C@@H](CCC(=O)O)C(=O)NCC(=O)N[C@H](C(=O)N[C@H](C(=O)N[C@@H](CCC(=O)O)C(=O)N[C@H](C(=O)N[C@@H](Cc1c[nH]cn1)C(=O)N[C@H](C(=O)N[C@@H](Cc1c[nH]c2ccccc12)C(=O)N[C@@H](CCC(=O)O)C(=O)NCC(=O)N[C@H](C(=O)O)C(C)C)C(C)C)[C@@H](C)CC)C(C)C)C(C)C)C(C)C [D60,65E-PIP [59-67] dimer] (H-VEIHVWEGVVEIHVWEGV-OH; N-terminus and C-terminus assumed)	68.5 ± 3.94%		IC50 (human recombinant MMP-1): 3740 nM; IC50 [1]: 4230 ± 670 nM
RVDIHVWDGVYIRGR [PIP [58-72], P-NT.II analogue]		23.3 ± 2.9%	
DIHVWDG [PIP [60-66], P-NT.II analogue]		4.7 ± 2.6%	
VDIHVWDGVYIRGR [PIP [59-72], P-NT.II analogue]		14.5 ± 2.4%	
LGRVDIHVWDGVYI [PIP [56-69], P-NT.II analogue]		59.8 ± 6.2%	
CC[C@H](C)[C@H](NC(=O)[C@H](CC(=O)O)NC(=O)[C@@H](N)C(C)C)C(=O)N[C@@H](Cc1cnc[nH]1)C(=O)N[C@H](C(=O)N[C@@H](Cc1c[nH]c2ccccc12)C(=O)N[C@@H](CC(=O)O)C(=O)NCC(=O)N[C@H](C(=O)N[C@H](C(=O)N[C@@H](CC(=O)O)C(=O)N[C@H](C(=O)N[C@@H](Cc1cnc[nH]1)C(=O)N[C@H](C(=O)N[C@@H](Cc1c[nH]c2ccccc12)C(=O)N[C@@H](CC(=O)O)C(=O)NCC(=O)N[C@H](C(=O)O)C(C)C)C(C)C)[C@@H](C)CC)C(C)C)C(C)C)C(C)C [PIP [59-67] dimer] (H-VDIHVWDGVVDIHVWDGV-OH)			IC50 (human recombinant MMP-1): 902 nM
GRVDIHVWDGVYIRGR [PIP [57-72], P-NT.II analogue]		39.8 ± 3.5%	
CC[C@H](C)[C@H](NC(=O)[C@H](CC(=O)O)NC(=O)[C@@H](N)C(C)C)C(=O)N[C@@H](Cc1c[nH]cn1)C(=O)N[C@H](C(=O)N[C@@H](Cc1c[nH]c2ccccc12)C(=O)N[C@@H](CCC(=O)O)C(=O)NCC(=O)N[C@H](C(=O)O)C(C)C)C(C)C [D65E-PIP [59-67], VDIHVW (E) GV] (H-VDIHVWEGV-OH; N-terminus and C-terminus assumed)	57.6 ± 3.22%		
CC[C@H](C)[C@H](NC(=O)[C@H](CCC(=O)O)NC(=O)[C@@H](N)C(C)C)C(=O)N[C@@H](Cc1c[nH]cn1)C(=O)N[C@H](C(=O)N[C@@H](Cc1c[nH]c2ccccc12)C(=O)N[C@@H](CCC(=O)O)C(=O)NCC(=O)N[C@H](C(=O)O)C(C)C)C(C)C [D60,65E-PIP [59-67]] (H-VEIHVWEGV-OH; N-terminus and C-terminus assumed)	61.4 ± 4.32%	5.4 ± 1.8%	
GRVDIHVWDGV [PIP [57-67], P-NT.II analogue]		65.1 ± 3.3%	
CC[C@H](C)[C@H](NC(=O)[C@H](CC(=O)O)NC(=O)[C@@H](N)C(C)C)C(=O)N[C@@H](Cc1c[nH]cn1)C(=O)N[C@H](C(=O)N[C@@H](Cc1c[nH]c2ccccc12)C(=O)N[C@@H](CO)C(=O)NCC(=O)N[C@H](C(=O)O)C(C)C)C(C)C [D655-PIP [59-67], VDIHVW (S) GV] (H-VDIHVWSGV-OH; N-terminus and C-terminus assumed)	52.5 ± 1.08%		
LGRVDIHVWDGVYIRG [PIP [56-71], P-NT.II analogue]		62.8 ± 6.6%	
CC[C@H](C)[C@H](NC(=O)[C@H](Cc1ccc(O)cc1)NC(=O)[C@@H](NC(=O)CNC(=O)[C@H](CC(=O)O)NC(=O)[C@H](Cc1c[nH]c2ccccc12)NC(=O)[C@@H](NC(=O)[C@H](Cc1cnc[nH]1)NC(=O)[C@@H](NC(=O)[C@H](CC(=O)O)NC(=O)[C@@H](NC(=O)[C@H](CCCNC(=N)N)NC(=O)CNC(=O)[C@@H](N)CC(C)C)C(C)C)[C@@H](C)CC)C(C)C)C(C)C)C(=O)N[C@@H](CCCNC(=N)N)C(=O)NCC(=O)N[C@@H](CCCNC(=N)N)C(=O)O [P-NT.II] (H-LGRVDIHVWDGVYIRGR-OH)			IC50 (human recombinant MMP-1): 1550 nM
